{
  "source": "patent US10532999B2",
  "about": "(priority 2012, dated 2020)",
  "key": {"[1]": {"test": "Chemical stability of ML336 with or without dithiothreitol (DTT), LCMS", "settings": "for Averaged Percent ML336 Remaining after 8 h / Percent ML336 Remaining after 8 h: 10 μM in PBS pH 7.4 (1% DMSO), room temperature; for Percent ML336 Remaining after 8 h: single runs"}, "VEEV": {"system": "VEEV", "settings": "read-out: Reported VEEV CPE inhibition; cited from earlier work"}, "VEEV TC-83": {"system": "VEEV TC-83", "test": "microbe, parasite or virus in culture", "format": "cell-based", "settings": "Venezuelan equine encephalitis virus, Vero 76, read-out: Assay provided VEEV CPE inhibition"}, "CYP450 (2C9, 2C19)": {"system": "CYP450 (2C9, 2C19)", "settings": "noted liability, Table 2, cited from earlier work"}, "[2]": {"settings": "ML336 without nucleophile (control)"}},
  "note": "“And” between values parts separate entries of the source, which are not always exact repeats. Identical values can stand only once. Like-named read-outs stand apart in the source and are kept apart here.",
  "data": [
    {"smiles": "CN1CCN(C)/C(=N/c2ccc([N+](=O)[O-])cc2C(=O)Nc2ccccc2)C1", "note": "[ML336, (E)-2-((1,4-dimethylpiperazin-2-ylidene)amino)-5-nitro-N-phenylbenzamide]", "values": [
      {"measurement": "adducts detected by LCMS", "setting": "[1]; 50 μM DTT, sampled every hour for eight hours", "value": "no adducts were detected"},
      {"measurement": "Averaged Percent ML336 Remaining after 8 h", "setting": "[1]; ML336 with 5X DTT (50 μM)", "value": 98.96, "unit": "%"},
      {"measurement": "Percent ML336 Remaining after 8 h", "setting": "[1]; ML336 with 5X DTT (50 μM)", "value": "100.36% and 97.55%"},
      {"measurement": "Averaged Percent ML336 Remaining after 8 h", "setting": "[1]; [2]", "value": 93.92, "unit": "%"},
      {"measurement": "Percent ML336 Remaining after 8 h", "setting": "[1]; [2]", "value": "96.13% and 91.70%"}
    ]},
    {"smiles": "COc1cc(NC(=O)Nc2cccc(CNC(=O)O[C@H]3CCOC3)c2)ccc1-c1cnco1", "note": "[VX-497]", "values": [
      {"measurement": "IC50", "setting": "VEEV", "value": 19.2, "unit": "µM"}
    ]},
    {"smiles": "Cc1cc(Cc2cc(C)cc(C(C)(C)C)c2O)c(O)c(Cc2cc(C)cc(C(C)(C)C)c2O)c1", "note": "[antioxidant 80]", "values": [
      {"measurement": "IC50", "setting": "VEEV TC-83", "value": "> 50", "unit": "µM"},
      {"measurement": "CYP450 (2C9, 2C19) inhibition", "setting": "CYP450 (2C9, 2C19)", "value": "~3", "unit": "µM"},
      {"measurement": "CYP450 (2C9, 2C19) inhibition", "setting": "CYP450 (2C9, 2C19); listed as Antioxidant 80", "value": "about 3 μM"}
    ]},
    {"smiles": "O=C(O)Cc1ccccc1Nc1c(Cl)cccc1Cl", "note": "[diclofenac sodium]", "values": [
      {"measurement": "IC50", "setting": "VEEV TC-83", "value": "> 50", "unit": "µM"}
    ]},
    {"smiles": "NS(=O)(=O)c1ccc(-n2c(-c3ccccc3)nc3ccc(Br)cc3c2=O)cc1", "note": "[quinazolinone]", "values": [
      {"measurement": "IC50", "setting": "VEEV TC-83", "value": "> 25", "unit": "µM"}
    ]},
    {"smiles": "NC(=O)c1ncn([C@@H]2O[C@H](CO)[C@@H](O)[C@H]2O)n1", "note": "[ribavirin]", "values": [
      {"measurement": "IC50", "setting": "VEEV TC-83", "value": 126, "unit": "µM"}
    ]}
  ]
}
